Data set [1] can be described thus: Lean mice, 6 weeks (Example 66): serum lipids and liver enzymes. Type of data set: in vivo, mouse. The note with it: serum. The method, then:
(§1) The accumulation of lipids in liver tissue was also evaluated in lean mice. Male […] mice (Charles River Laboratories (Wilmington, Mass.) at 6 to 7 weeks of age were maintained on a standard rodent diet and were treated twice weekly with intraperitoneal injections of 25 or 50 mg/kg 147764 (SEQ ID NO: 109) or 147483 (SEQ ID NO: 79) for 6 weeks. Saline treated animals served as controls. Each treatment group was comprised of 4 animals. Animals were sacrificed after the 6 week treatment period, at which point liver tissue and serum were collected.
Total cholesterol, LDL-cholesterol, HDL-cholesterol and triglycerides in serum were measured by routine clinical analysis using an Olympus Clinical Analyzer (Olympus America Inc., Melville, N.Y.). The liver enzymes ALT and […] in serum were also measured using the Olympus Clinical Analyzer.

The nature of data set [2]: High fat fed mice (Example 65): ALT and AST levels. Type of data set: in vivo, mouse. The method, then: (§2) Male C57Bl/6 mice were divided into the following groups, consisting of 5 animals each: (1) mice on a lean diet, injected with saline (lean control); (2) mice on a high fat diet; (3) mice on a high fat diet injected with 50 mg/kg of the control oligonucleotide 141923 (SEQ ID NO: 858); (4) mice on a high fat diet given 20 mg/kg atorvastatin calcium (Lipitor®, Pfizer Inc.); (5) mice on a high fat diet injected with 10, 25 or 50 mg/kg ISIS 147764 (SEQ ID NO: 109). Saline and oligonucleotide treatments were administered intraperitoneally twice weekly for 6 weeks. Atorvastatin was administered daily for 6 weeks. At study termination, liver samples were isolated from each animal and RNA was isolated for Northern blot qualitative assessment, DNA microarray and quantitative real-time PCR. Northern blot assessment and quantitative real-time PCR were performed as described by other examples herein.
(§3) Mouse apolipoprotein B mRNA and serum cholesterol levels, measured as described herein, were evaluated to confirm antisense inhibition by ISIS 147764 and ISIS 147483. […] The 50 mg/kg dose of ISIS 147483 increased ALT and AST levels.

For data set [3], the system named is apolipoprotein B mRNA. Nature of the data set: ob/ob mice (Example 50): apolipoprotein B mRNA levels in liver. It is filed as in vivo, mouse. The note with it: high fat high cholesterol diet, 50 mg/kg i.p. twice a week, six weeks. The method, then:
(§4) Ob/ob mice receiving a high fat, high cholesterol diet (60% kcal fat supplemented with 0.15% cholesterol) were treated with one of several oligonucleotides to evaluate their effect on apolipoprotein B-related phenotypic endpoints in ob/ob mice. After overnight fasting, mice from each group were dosed intraperitoneally twice a week with 50 mg/kg of ISIS 147483 (SEQ ID NO: 79), or 147764 (SEQ ID NO: 109), or the controls ISIS 116847 (SEQ ID NO: 857), or 141923 (SEQ ID NO: 858), or saline for six weeks. At study termination and forty eight hours after the final injections, animals were sacrificed and evaluated for target mRNA levels in liver, cholesterol and triglyceride levels, liver enzyme levels, serum glucose levels, and PTEN levels.

Data set [4] deals with mouse apolipoprotein B mRNA. Nature of the data set: High fat fed mice (Example 65): mouse apolipoprotein B mRNA and serum cholesterol levels. It is filed as in vivo. The method, then:
as §2, §3

Data set [5] is described as follows: ob/ob mice (Example 50): cholesterol, lipid, triglyceride, liver enzyme and glucose levels. It is filed as in vivo, mouse. The note with it: high fat high cholesterol diet, 50 mg/kg i.p. twice a week, six weeks. The method, then:
as §4

Data set [6] has as its system apolipoprotein B mRNA. Nature of the data set: Lean mice, 6 weeks (Example 66): apolipoprotein B mRNA. It is filed as in vivo, mouse. The method, then: as §1
Apolipoprotein B mRNA levels were measured by real-time PCR as described by other examples herein. The data, shown in Table 51, represent the average of 4 animals and are presented as inhibition relative to saline treated controls.

In the oligonucleotide strings, read from the 5' end, every base follows the letter of its sugar. An asterisk marks phosphorothioate; unmarked linkages are phosphodiester. Other units and linkages are bracketed, terminal groups are in braces. A string of capitals states the bases alone. e = 2'-O-(2-methoxyethyl) (MOE); [5mC] = 5-methylcytosine; d = 2'-deoxy (DNA)

For “ATGTCAATGCCACATGTCCA (antisense eA*eT*eG*eT*e[5mC]*dA*dA*dT*dG*d[5mC]*d[5mC]*dA*d[5mC]*dA*dT*eG*eT*e[5mC]*e[5mC]*eA) [ISIS 147483]”, in data set [1] (25 mg/kg i.p. twice weekly), the HDL-cholesterol worked out at 117 mg/dL, the LDL-cholesterol amounted to 26 mg/dL, the “Liver Enzymes ALT” value was determined as 73 IU/L and the “Liver Enzymes AST” value was found to be 78 IU/L. In data set [1] (25 mg/kg i.p. twice weekly), the Total cholesterol amounted to 153 mg/dL and the Triglycerides worked out at 138 mg/dL. In data set [1] (50 mg/kg i.p. twice weekly), the HDL-cholesterol was found to be 131 mg/dL, the LDL-cholesterol is 39 mg/dL, the “Liver Enzymes ALT” value worked out at 57 IU/L and the “Liver Enzymes AST” value was determined as 72 IU/L. In data set [1] (50 mg/kg i.p. twice weekly), this sequence registered a Total cholesterol of 183 mg/dL and a Triglycerides of 127 mg/dL. Also, the “ALT and AST levels” value in data set [2] (50 mg/kg) is “increased”. Besides, the “ALT or AST levels” value in data set [2] (10 and 25 mg/kg) is recorded as “did not significantly elevate”. For the same sequence, the “apolipoprotein B mRNA levels” value in data set [3] is reported as “able to lower”. Besides, the “mouse apolipoprotein B mRNA and serum cholesterol levels” value in data set [4] is “lowered in a dose-dependent manner”. For the same sequence, the “glucose, cholesterol, and triglyceride levels” value in data set [5] is given as “able to lower”. The “% Inhibition apolipoprotein B mRNA” value in data set [6] (25 mg/kg i.p. twice weekly) was found to be 79%. For the same sequence, in data set [6] (50 mg/kg i.p. twice weekly), the “% Inhibition apolipoprotein B mRNA” value is recorded as 91%. In addition, the “inhibition of apolipoprotein B mRNA expression” value in data set [6] (25 or 50 mg/kg i.p. twice weekly) was “in a dose-dependent manner”.

Values taken from patent US7803930B2, “Antisense modulation of apolipoprotein B-expression” (Isis Pharmaceuticals, Inc., priority 2002, dated 2010).
